Reference: patent US20030232790A1, “Dihydro-2h-napthalene-1-one inhibitors of ras farnesyl transferase” (priority 2002, published 2003)
Where two headings read alike, the source gives them in different places.

What was measured:
[1] = molecular target: T1, protein:farnesyl transferase (PFT), SF9 affinity purified rat FPT (Rattus norvegicus, UniProt Q02293+Q04631); assay: PFT (FPT) inhibitory activity, radiolabeled farnesyl pyrophosphate / biotinyl peptide streptavidin bead assay; format: biochemical
T1 construct: made in house
Method: The pharmaceutical utility of compounds of this invention was established by the following standard assay which measures inhibition of the enzyme protein:farnesyl transferase (PFT), also referred to as farnesyl protein transferase (FPT).
The PFT (or FPT) inhibitory activity of compounds of the present invention was assayed in HEPES buffer (pH 7.4) containing 5 mM potassium phosphate and 20 μM ZnCl2. The solution also contained 5 mM DTT (dithiothreitol), 5 mM MgCl2, and 0.1% PEG 8000. Assays were performed in 96 well plates (Wallec) and employed solutions composed of varying concentrations of a compound of the present invention in 10% DMSO (dimethylsulfoxide). Upon addition of both substrates, radiolabeled farnesyl pyrophosphate ([1^3H], specific activity 15-30 Ci/mmol, final concentration 134 nM) and (biotinyl)-Ahe-Thr-Lys-Cys-Val-Ile-Met ([3aS[3a alpha, 4 beta, 6a alpha]-hexahydro-2-oxo-1H-thieno[3,4-d]imidazole-5-pentanoic acid]-[7-aminoheptanoic acid]-Thr-Lys-Cys-Val-Ile-Met) (Ahe is 7-aminoheptanoic acid, Thr is threonine, Lys is lysine, Cys is cysteine, Val is valine, Ile is isoleucine, and Met is methionine) (final concentration 0.2 μM), the enzyme reaction was started by addition of SF9 affinity purified rat FPT. After incubation at 30° C. for 30 minutes, the reaction was terminated by diluting the mixture 2.5-fold with a stop buffer containing 1.5 M magnesium acetate, 0.2 M H3PO4, 0.5% BSA (bovine serum albumin), and strepavidin beads (Amersham) at a concentration of 1.3 mg/mL. After allowing the plate to settle for 30 minutes at room temperature, radioactivity was quantitated on a microBeta counter (Model 1450, Wallec). The assay was also carried out without 5 mM potassium phosphate.

[2] = tested on: EJ-1 human bladder carcinoma, HT18O human fibrosarcoma, and human colon carcinoma xenografts; settings: 100 mg/kg; xenografts in nude mice; cited from earlier work
[3] = tested on: human lung carcinoma with K-ras mutation and p53 deletion; settings: nude mice; cited from earlier work
[4] = tested on: mammary and salivary carcinomas; settings: daily administration; ras transgenic mice; cited from earlier work
[5] = HEPES buffer pH 7.4 with 5 mM potassium phosphate, read-out: IC50 (μm) Hepes ± 5 mM Phosphate
[6] = HEPES buffer pH 7.4 without 5 mM potassium phosphate, read-out: IC50 (μm) Hepes

IC50 [1, 5] | IC50 [1, 6] | Compound | other results
870 nM | 1390 nM | CCCc1c(OCCc2cncn2Cc2ccccc2)ccc2c1CCCC2=O [Compound 2, 6-[2-(3-benzyl-3H-imidazol-4-yl)-ethoxy]-5-propyl-3,4-dihydro-2H-naphthalen-1-one] | –
52 nM | 73 nM | O=C1CCCc2c1ccc(OCCc1cncn1Cc1ccccc1)c2CCc1ccccc1 [Compound 3, 6-[2-(3-benzyl-3H-imidazol-4-yl)-ethoxy]-5-phenethyl-3,4-dihydro-2H-naphthalen-1-one] | –
– | 0.3 nM | N#Cc1ccc(Cn2cncc2CCOc2ccc3c(c2CCc2ccccc2)CCCC3=O)cc1 [Compound 4, 4-{[5-(2-{[5-oxo-1-(2-phenylethyl)-5,6,7,8-tetrahydro-2-naphthalenyl]oxy}ethyl)-1H-imidazol-1-yl]methyl}benzonitrile] | –
22 nM | 24 nM | COc1ccc(Cn2cncc2CCOc2ccc3c(c2)CCCC3=O)cc1C [Compound 12, 6-{2-[3-(4-methoxy-3-methyl-benzyl)-3H-imidazol-4-yl]-ethoxy}-3,4-dihydro-2H-naphthalen-1-one] | –
– | 0.3 nM | N#Cc1ccc(Cn2cncc2CCOc2ccc3c(c2CS(=O)(=O)c2ccccn2)CCCC3=O)cc1 [Compound 28, 4-({5-[2-({5-oxo-1-[(2-pyridinylsulfonyl)methyl]-5,6,7,8-tetrahydro-2-naphthalenyl}oxy)ethyl]-1H-imidazol-1-yl}methyl)benzonitrile] | –
– | 0.5 nM | CC(C)S(=O)(=O)Cc1c(OCCc2cncn2Cc2ccc(C#N)cc2)ccc2c1CCCC2=O [Compound 29, 4-({5-[2-({1-[(isopropylsulfonyl)methyl]-5-oxo-5,6,7,8-tetrahydro-2-naphthalenyl}oxy)ethyl]-1H-imidazol-1-yl}methyl)benzonitrile] | –
– | – | COC(=O)[C@H](CCSC)NC(=O)[C@H](/C=C\[C@@H](/C=C/[C@@H](N)CS)C(C)C)Cc1ccccc1 [Compound B1086] | tumor growth inhibition [2]: inhibit tumor growth
– | – | CSCC[C@H](NC(=O)c1ccc(NC[C@@H](N)CS)cc1-c1ccccc1)C(=O)O [FTI276] | tumor growth [3]: selectively block tumor growth
– | – | CC[C@H](C)[C@@H](CO[C@@H](Cc1ccccc1)C(=O)N[C@@H](CCS(C)(=O)=O)C(=O)OC(C)C)NC[C@@H](N)CS [L-744,832] | tumor regression [4]: caused tumor regression
